# Data published in US10723711B2, “1,1,1-trifluoro-3-hydroxypropan-2-yl carbamate derivatives and 1,1,1-trifluoro-4-hydroxybutan-2-yl carbamate derivatives as MAGL inhibitors” (PFIZER INC., priority 2015, dated 2020).
# Read-outs that look alike come from different tables or passages of the source.
# Key:
# [1] = Prodrug in vivo pharmacokinetics in rats after intravenous administration (LC-MS-MS of prodrug and parent); conditions: Wistar Hann rats; for Cmax: Wistar Hann, rat, iv
# Description: (§1) Pharmacokinetic parameters derived from the plasma analytical data were determined using Watson LIMS 7.2.003 (Thermo Fisher Scientific, Waltham, Mass.).
# human recombinant FAAH = target: T1, human recombinant FAAH (Homo sapiens, UniProt O00519); test: FAAH inhibition enzymatic assay, fluorescent substrate Arachidonoyl-AMC, 30 minute incubation; format: biochemical; conditions: T = 30 min (30 minute incubation); geometric mean of 2-4 determinations unless otherwise indicated
# T1 construct: purchased Cayman 10010183
# T1 sequence (O00519 1-579): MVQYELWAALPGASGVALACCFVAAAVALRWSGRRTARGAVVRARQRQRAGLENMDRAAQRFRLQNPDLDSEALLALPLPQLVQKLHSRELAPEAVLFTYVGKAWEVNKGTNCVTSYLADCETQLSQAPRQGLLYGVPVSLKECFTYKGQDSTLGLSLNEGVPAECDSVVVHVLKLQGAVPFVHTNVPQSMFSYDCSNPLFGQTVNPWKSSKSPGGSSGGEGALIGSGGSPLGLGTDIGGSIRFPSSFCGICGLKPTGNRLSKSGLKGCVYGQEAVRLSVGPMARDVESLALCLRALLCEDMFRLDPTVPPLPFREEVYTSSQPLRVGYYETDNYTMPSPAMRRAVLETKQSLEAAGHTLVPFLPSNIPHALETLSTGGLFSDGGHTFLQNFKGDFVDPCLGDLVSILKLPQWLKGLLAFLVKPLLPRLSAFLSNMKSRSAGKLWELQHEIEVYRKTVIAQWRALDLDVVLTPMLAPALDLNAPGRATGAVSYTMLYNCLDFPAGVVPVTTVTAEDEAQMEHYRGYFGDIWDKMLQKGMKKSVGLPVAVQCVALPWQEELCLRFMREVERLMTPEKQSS
# [2] = Prodrug in vivo pharmacokinetics in dogs after intravenous administration (LC-MS-MS of prodrug and parent); conditions: Beagle dogs
# Description: as §1
# [3] = target: T2, human recombinant Monoacylglycerol Lipase (Homo sapiens, UniProt Q99685); test: MAGL inactivation, enzyme progress curves, kinact/KI; format: biochemical; conditions: from enzyme progress curves, T = 0 min protocol; geometric mean of 2-4 determinations unless otherwise indicated
# T2 sequence (Q99685 1-303): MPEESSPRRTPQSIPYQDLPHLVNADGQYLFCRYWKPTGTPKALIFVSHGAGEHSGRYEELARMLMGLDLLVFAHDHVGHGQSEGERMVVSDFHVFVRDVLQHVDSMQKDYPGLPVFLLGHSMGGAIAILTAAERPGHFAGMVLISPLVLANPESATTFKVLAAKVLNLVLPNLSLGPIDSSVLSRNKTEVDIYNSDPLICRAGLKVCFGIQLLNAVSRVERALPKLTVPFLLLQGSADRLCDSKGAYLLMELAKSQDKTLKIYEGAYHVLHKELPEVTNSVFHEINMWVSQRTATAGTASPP
# In short: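 Human recombinant MAGL ([…]) with compound, 7-HCA substrate (final 5 μM) added immediately (T=0 min), in pH 7.4 HEPES buffer with 0.1% Triton X-100 and 25% glycerin. Fluorescence (Ex/Em 340/465) was read every minute over 60 min, giving progress curves at decreasing compound concentrations (final 3 μM to 0.03 nM).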
# [4] = target: T2, human recombinant Monoacylglycerol Lipase; test: MAGL inhibition enzymatic assay, fluorogenic substrate 7-HCA, IC50 at T=0 min or after 30 minute incubation (T=30 min); format: biochemical; conditions: geometric mean of 2-4 determinations unless otherwise indicated
# Description: An equal volume of 7-HCA in assay buffer with 10% DMSO was added either immediately (T=0 min) or after a 30 minute incubation (T=30 min) to initiate the reaction. […] After these dilutions, the final concentration of the test compound ranged from 3 μM to 0.03 nM. […] IC50 values were generated based on a four parameter fit model using ABASE software from IDBS.
# [5] = Example 9 (parent) in plasma, IV Example 31 at 1.48 mg/kg, Mean
# [6] = Example 9 (parent) in plasma, IV Example 31 at 1.48 mg/kg, Rat 01
# [7] = Example 9 (parent) in plasma, IV Example 31 at 1.48 mg/kg, Rat 02
# [8] = Example 9 (parent) in plasma, IV Example 31 at 0.7 mg/kg, Dog 01
# [9] = Example 9 (parent) in plasma, IV Example 31 at 0.7 mg/kg, Dog 02
# [10] = Example 9 (parent) in plasma, IV Example 31 at 0.7 mg/kg, Mean
# [11] = T = 0 min (substrate added immediately), read-out: MAGL (T = 0 min) IC50
# [12] = T = 30 min (30 minute incubation), read-out: MAGL (T = 30 min) IC50
# [13] = Example 6 (parent) in plasma, IV Example 32 at 2 mg/kg, Mean
# [14] = Example 6 (parent) in plasma, IV Example 32 at 2 mg/kg, Rat 03
# [15] = Example 6 (parent) in plasma, IV Example 32 at 2 mg/kg, Rat 04
# [16] = Example 6 (parent) in plasma, IV Example 32 at 1 mg/kg, Dog 03
# [17] = Example 6 (parent) in plasma, IV Example 32 at 1 mg/kg, Dog 04
# [18] = Example 6 (parent) in plasma, IV Example 32 at 1 mg/kg, Mean
smiles,measurement,setting,value
"O=C(O[C@H](CO)C(F)(F)F)N1CCC2(CC1)C[C@@H](NS(=O)(=O)c1ccccc1)CO2 [Example 9, (2R)-1,1,1-Trifluoro-3-hydroxypropan-2-yl (3R)-3-[(phenylsulfonyl)amino]-1-oxa-8-azaspiro[4.5]decane-8-carboxylate]",% AUC Extrap,[1]; [5],2.46%
same,AUC,[1]; [5],146 ng·h/mL
same,AUC Extrap,[1]; [5],150 ng·h/mL
same,Rate Constant,[1]; [5],0.500 h⁻¹
same,Tmax,[1]; [5],4.98 min
same,T½,[1]; [5],84.6 min
same,% AUC Extrap,[1]; [6],2.08%
same,AUC,[1]; [6],118 ng·h/mL
same,AUC Extrap,[1]; [6],121 ng·h/mL
same,Rate Constant,[1]; [6],0.560 h⁻¹
same,Tmax,[1]; [6],4.98 min
same,T½,[1]; [6],74.4 min
same,% AUC Extrap,[1]; [7],2.83%
same,AUC,[1]; [7],173 ng·h/mL
same,AUC Extrap,[1]; [7],178 ng·h/mL
same,Rate Constant,[1]; [7],0.440 h⁻¹
same,Tmax,[1]; [7],4.98 min
same,T½,[1]; [7],94.2 min
same,Cmax,"[1]; in vivo, 1.48 mg/kg, Example 9 (parent) in plasma, IV Example 31 at 1.48 mg/kg, Mean",316 ng/mL
same,Cmax,"[1]; in vivo, 1.48 mg/kg, Example 9 (parent) in plasma, IV Example 31 at 1.48 mg/kg, Rat 01",253 ng/mL
same,Cmax,"[1]; in vivo, 1.48 mg/kg, Example 9 (parent) in plasma, IV Example 31 at 1.48 mg/kg, Rat 02",378 ng/mL
same,IC50,human recombinant FAAH,> 30000 nM
same,AUC,[2]; [8],1350 ng·h/mL
same,AUC Extrap,[2]; [8],1550 ng·h/mL
same,Tmax,[2]; [8],15 min
same,T½,[2]; [8],642 min
same,AUC,[2]; [9],1460 ng·h/mL
same,AUC Extrap,[2]; [9],1560 ng·h/mL
same,Tmax,[2]; [9],4.98 min
same,T½,[2]; [9],482 min
same,AUC,[2]; [10],1410 ng·h/mL
same,AUC Extrap,[2]; [10],1560 ng·h/mL
same,Tmax,[2]; [10],10.2 min
same,T½,[2]; [10],562 min
same,MAGL kinact/KI,[3],8588 1/s per M
same,IC50,[4]; [11],40 nM
same,IC50,[4]; [12],4 nM
"O=C(O[C@H](CO)C(F)(F)F)N1CCC2(CC1)CN(S(=O)(=O)c1ccc(F)cc1)CCO2 [Example 6, (2R)-1,1,1-Trifluoro-3-hydroxypropan-2-yl 4-[(4-fluorophenyl)sulfonyl]-1-oxa-4,9-diazaspiro[5.5]undecane-9-carboxylate]",% AUC Extrap,[1]; [13],3.46%
same,AUC,[1]; [13],158 ng·h/mL
same,AUC Extrap,[1]; [13],162 ng·h/mL
same,Rate Constant,[1]; [13],2.22 h⁻¹
same,Tmax,[1]; [13],3.48 min
same,T½,[1]; [13],20.5 min
same,% AUC Extrap,[1]; [14],6.04%
same,AUC,[1]; [14],102 ng·h/mL
same,AUC Extrap,[1]; [14],109 ng·h/mL
same,Rate Constant,[1]; [14],2.86 h⁻¹
same,Tmax,[1]; [14],4.98 min
same,T½,[1]; [14],14.5 min
same,% AUC Extrap,[1]; [15],0.880%
same,AUC,[1]; [15],213 ng·h/mL
same,AUC Extrap,[1]; [15],215 ng·h/mL
same,Rate Constant,[1]; [15],1.57 h⁻¹
same,Tmax,[1]; [15],1.98 min
same,T½,[1]; [15],26.5 min
same,Cmax,"[1]; plasma, 2 mg/kg, Example 6 (parent) in plasma, IV Example 32 at 2 mg/kg, Mean",309 ng/mL
same,Cmax,"[1]; plasma, 2 mg/kg, Example 6 (parent) in plasma, IV Example 32 at 2 mg/kg, Rat 03",234 ng/mL
same,Cmax,"[1]; plasma, 2 mg/kg, Example 6 (parent) in plasma, IV Example 32 at 2 mg/kg, Rat 04",384 ng/mL
same,IC50,human recombinant FAAH,> 30000 nM
same,AUC,[2]; [16],591 ng·h/mL
same,AUC Extrap,[2]; [16],595 ng·h/mL
same,Tmax,[2]; [16],4.98 min
same,T½,[2]; [16],246 min
same,AUC,[2]; [17],705 ng·h/mL
same,AUC Extrap,[2]; [17],710 ng·h/mL
same,Tmax,[2]; [17],4.98 min
same,T½,[2]; [17],322 min
same,AUC,[2]; [18],648 ng·h/mL
same,AUC Extrap,[2]; [18],653 ng·h/mL
same,Tmax,[2]; [18],4.98 min
same,T½,[2]; [18],284 min
same,MAGL kinact/KI,[3],13406 1/s per M
same,melting point,,132 °C
same,IC50,[4]; [11],83 nM
same,IC50,[4]; [12],7 nM
